# Laboratory results published in patent US20230398130A1, “METHODS AND COMPOSITIONS FOR DIFFERENTIATING STEM CELLS” (Massachusetts Institute of Technology, priority 2020, published 2023).
# How the values were obtained:
# [1] = system: ISC-enriched organoids; test: Primary screen, 384-well 2.5-D organoid differentiation (ENR+CD, 6 days): basal lysozyme secretion (LYZ.NS); type: cell-based, murine; settings: primary screen; for Dose.FC.LYZ.NS: FC vs plate median; for Z.LYZ.NS: standard z score; for SSMD.LYZ.NS: strictly standardized mean difference; for Dose.FC.LYZ.NS (log 2 fold change): vs plate median
# Excerpt: (§1) High-throughput screening.
# [2] = system: ISC-enriched organoids; test: Primary screen, 384-well 2.5-D organoid differentiation (ENR+CD, 6 days): carbachol-induced lysozyme secretion (LYZ.S); type: cell-based, murine; settings: primary screen; for Dose.FC.LYZ.S: FC vs plate median; for Z.LYZ.S: standard z score; for SSMD.LYZ.S: strictly standardized mean difference; for Dose.FC.LYZ.S (log 2 fold change): vs plate median
# Excerpt: as §1
# [3] = system: ISC-enriched organoids; test: Primary screen, 384-well 2.5-D organoid differentiation (ENR+CD, 6 days, Target Selective Inhibitor Library, vs whole-plate median): ATP (CellTiter-Glo 3D, CTG); settings: for Dose.FC.CTG: FC vs plate median; for SSMD.CTG: strictly standardized mean difference; for Dose.FC.CTG (log 2 fold change): vs plate median
# [4] = 1st of the 4 dose lines of the treatment (dose not given)
# [5] = 2nd of the 4 dose lines of the treatment (dose not given)
# [6] = 3rd of the 4 dose lines of the treatment (dose not given)
# [7] = 4th of the 4 dose lines of the treatment (dose not given)
# [8] = Dose 0.08 uM, primary screen, standard z score
# [9] = Dose 0.40 uM, primary screen, standard z score
# [10] = Dose 2.00 uM, primary screen, standard z score
# [11] = Dose 10.00 uM, primary screen, standard z score
# [12] = primary screen, 1st of the 4 dose lines of the treatment (dose not given)
# [13] = primary screen, 2nd of the 4 dose lines of the treatment (dose not given)
# [14] = primary screen, 3rd of the 4 dose lines of the treatment (dose not given)
# [15] = primary screen, 4th of the 4 dose lines of the treatment (dose not given)
Molecule,"SSMD.LYZ.NS [1, 4]","SSMD.LYZ.NS [1, 5]","SSMD.LYZ.NS [1, 6]","SSMD.LYZ.NS [1, 7]","Z.LYZ.S [2, 4]","Z.LYZ.S [2, 5]","Z.LYZ.S [2, 6]","Z.LYZ.S [2, 7]","SSMD.LYZ.S [2, 4]","SSMD.LYZ.S [2, 5]","SSMD.LYZ.S [2, 6]","SSMD.LYZ.S [2, 7]","Z.CTG [3, 8]","Z.CTG [3, 9]","Z.CTG [3, 10]","Z.CTG [3, 11]","SSMD.CTG [3, 12]","SSMD.CTG [3, 13]","SSMD.CTG [3, 14]","SSMD.CTG [3, 15]",other results
Cc1cc(Nc2cc(CN3CCOCC3)c3nc(C)c(Cc4ccc(Cl)cc4F)n3n2)n[nH]1 [LY2784544],0.395,0.037,0.582,−2.015,0.794,0.498,0.737,−2.373,0.911,0.595,0.492,−2.074,0.259,0.148,0.433,−1.984,0.378,0.135,0.500,−1.283,"Dose.FC.LYZ.NS ([1]; Dose 0.08 uM): 0.132 log 2 fold change; Z.LYZ.NS ([1]; Dose 0.08 uM): 1.152; Dose.FC.LYZ.NS ([1]; Dose 0.40 uM): 0.004 log 2 fold change; Z.LYZ.NS ([1]; Dose 0.40 uM): 0.033; Dose.FC.LYZ.NS ([1]; Dose 2.00 uM): 0.068 log 2 fold change; Z.LYZ.NS ([1]; Dose 2.00 uM): 0.591; Dose.FC.LYZ.NS ([1]; Dose 10.00 uM): −0.280 log 2 fold change; Z.LYZ.NS ([1]; Dose 10.00 uM): −2.439; Dose.FC.LYZ.S ([2]; Dose 0.08 uM): 0.123 log 2 fold change; Dose.FC.LYZ.S ([2]; Dose 0.40 uM): 0.077 log 2 fold change; Dose.FC.LYZ.S ([2]; Dose 2.00 uM): 0.114 log 2 fold change; Dose.FC.LYZ.S ([2]; Dose 10.00 uM): −0.367 log 2 fold change; Dose.FC.CTG ([3]; Dose 0.08 uM, primary screen): 0.108 log 2 fold change; Dose.FC.CTG ([3]; Dose 0.40 uM, primary screen): 0.062 log 2 fold change; Dose.FC.CTG ([3]; Dose 2.00 uM, primary screen): 0.181 log 2 fold change; Dose.FC.CTG ([3]; Dose 10.00 uM, primary screen): −0.831 log 2 fold change"
CCOC(=O)c1ccc(N2NC(=O)/C(=C/c3ccc([N+](=O)[O-])o3)C2=O)cc1 [PYR-41],–,–,–,–,–,–,–,–,–,–,–,–,–,–,–,–,–,–,–,–,"Z.LYZ.NS (standard z score) ([1]; Dose 0.08 uM): 1.305; Dose.FC.LYZ.NS (log 2 fold change) ([1]; Dose 0.08 uM): 0.150; Z.LYZ.NS (standard z score) ([1]; Dose 0.40 uM): 0.777; Dose.FC.LYZ.NS (log 2 fold change) ([1]; Dose 0.40 uM): 0.089; Z.LYZ.NS (standard z score) ([1]; Dose 2.00 uM): 0.568; Dose.FC.LYZ.NS (log 2 fold change) ([1]; Dose 2.00 uM): 0.065; Z.LYZ.NS (standard z score) ([1]; Dose 10.00 uM): 0.861; Dose.FC.LYZ.NS (log 2 fold change) ([1]; Dose 10.00 uM): 0.099; Dose.FC.LYZ.S (log 2 fold change) ([2]; Dose 0.08 uM): 0.193; Dose.FC.LYZ.S (log 2 fold change) ([2]; Dose 0.40 uM): 0.076; Dose.FC.LYZ.S (log 2 fold change) ([2]; Dose 2.00 uM): 0.049; Dose.FC.LYZ.S (log 2 fold change) ([2]; Dose 10.00 uM): 0.129; Z.CTG (standard z score) ([3]; Dose 0.08 uM, primary screen): 0.609; Dose.FC.CTG (log 2 fold change) ([3]; Dose 0.08 uM, primary screen): 0.255; Z.CTG (standard z score) ([3]; Dose 0.40 uM, primary screen): 0.762; Dose.FC.CTG (log 2 fold change) ([3]; Dose 0.40 uM, primary screen): 0.319; Z.CTG (standard z score) ([3]; Dose 2.00 uM, primary screen): 0.385; Dose.FC.CTG (log 2 fold change) ([3]; Dose 2.00 uM, primary screen): 0.161; Z.CTG (standard z score) ([3]; Dose 10.00 uM, primary screen): 0.229; Dose.FC.CTG (log 2 fold change) ([3]; Dose 10.00 uM, primary screen): 0.096"
O=C(C[S+]([O-])Cc1ccco1)NC/C=C\COc1cc(CN2CCCCC2)ccn1 (centres unmarked) [Lafutidine],0.285,0.064,0.359,0.581,0.339,0.506,0.491,−0.093,0.331,0.460,0.503,−0.111,0.363,0.346,0.329,−0.235,0.452,0.476,0.505,−0.249,–
CC(C)c1onc(-c2c(Cl)cccc2Cl)c1COc1ccc(/C=C/c2cccc(C(=O)O)c2)c(Cl)c1 [GW4064],–,–,–,–,–,–,–,–,–,–,–,–,−0.320,0.334,−0.346,−0.375,–,–,–,–,"Dose.FC.LYZ.NS ([1]; Dose 0.08 uM): 0.170 log 2 fold change; Z.LYZ.NS ([1]; Dose 0.08 uM): 1.476; Dose.FC.LYZ.NS ([1]; Dose 0.40 uM): −0.022 log 2 fold change; Z.LYZ.NS ([1]; Dose 0.40 uM): −0.194; Dose.FC.LYZ.NS ([1]; Dose 2.00 uM): 0.022 log 2 fold change; Z.LYZ.NS ([1]; Dose 2.00 uM): 0.196; Dose.FC.LYZ.NS ([1]; Dose 10.00 uM): −0.059 log 2 fold change; Z.LYZ.NS ([1]; Dose 10.00 uM): −0.516; Dose.FC.LYZ.S ([2]; Dose 0.08 uM): 0.028 log 2 fold change; Dose.FC.LYZ.S ([2]; Dose 0.40 uM): 0.097 log 2 fold change; Dose.FC.LYZ.S ([2]; Dose 2.00 uM): 0.000 log 2 fold change; Dose.FC.LYZ.S ([2]; Dose 10.00 uM): −0.071 log 2 fold change; Dose.FC.CTG ([3]; Dose 0.08 uM, primary screen): −0.134 log 2 fold change; Dose.FC.CTG ([3]; Dose 0.40 uM, primary screen): 0.140 log 2 fold change; Dose.FC.CTG ([3]; Dose 2.00 uM, primary screen): −0.145 log 2 fold change; Dose.FC.CTG ([3]; Dose 10.00 uM, primary screen): −0.157 log 2 fold change"
c1cc(-c2cnn3cc(-c4ccc(N5CCNCC5)cc4)cnc23)c2cccnc2c1 [LDN-212854],0.567,0.395,−1.438,−1.649,1.050,0.167,−1.888,−2.582,0.799,0.136,−1.525,−1.672,0.568,0.309,−1.134,−3.018,0.686,0.242,−1.244,−1.589,"Dose.FC.LYZ.NS ([1]; Dose 0.08 uM): 0.095 log 2 fold change; Z.LYZ.NS ([1]; Dose 0.08 uM): 0.823; Dose.FC.LYZ.NS ([1]; Dose 0.40 uM): 0.051 log 2 fold change; Z.LYZ.NS ([1]; Dose 0.40 uM): 0.446; Dose.FC.LYZ.NS ([1]; Dose 2.00 uM): −0.217 log 2 fold change; Z.LYZ.NS ([1]; Dose 2.00 uM): −1.885; Dose.FC.LYZ.NS ([1]; Dose 10.00 uM): −0.273 log 2 fold change; Z.LYZ.NS ([1]; Dose 10.00 uM): −2.375; Dose.FC.LYZ.S ([2]; Dose 0.08 uM): 0.162 log 2 fold change; Dose.FC.LYZ.S ([2]; Dose 0.40 uM): 0.026 log 2 fold change; Dose.FC.LYZ.S ([2]; Dose 2.00 uM): −0.292 log 2 fold change; Dose.FC.LYZ.S ([2]; Dose 10.00 uM): −0.399 log 2 fold change; Dose.FC.CTG ([3]; Dose 0.08 uM, primary screen): 0.238 log 2 fold change; Dose.FC.CTG ([3]; Dose 0.40 uM, primary screen): 0.129 log 2 fold change; Dose.FC.CTG ([3]; Dose 2.00 uM, primary screen): −0.475 log 2 fold change; Dose.FC.CTG ([3]; Dose 10.00 uM, primary screen): −1.263 log 2 fold change"
Cc1ccccc1C(=O)Nc1ccc(C(=O)N2CCCC(N(C)C)c3ccccc32)cc1 (centres unmarked) [Mozavaptan],0.283,−0.203,0.340,−1.544,0.557,1.068,0.688,−1.745,0.266,0.560,0.775,−1.480,–,–,–,–,0.521,0.427,0.274,−0.812,"Z.CTG ([3]; Dose 0.08 uM, standard z score of FC): 0.765; Z.CTG ([3]; Dose 0.40 uM, standard z score of FC): 0.562; Z.CTG ([3]; Dose 2.00 uM, standard z score of FC): 0.259; Z.CTG ([3]; Dose 10.00 uM, standard z score of FC): −0.803"
KX2-391,−2.177,−1.855,−1.701,−2.061,−2.561,−2.455,−2.741,−2.709,−2.252,−1.641,−1.898,−2.140,−1.796,−2.989,−4.737,−3.377,−2.473,−2.845,−2.822,−1.255,"Dose.FC.LYZ.NS ([1]; Dose 0.08 uM): −0.283 log 2 fold change; Z.LYZ.NS ([1]; Dose 0.08 uM): −2.468; Dose.FC.LYZ.NS ([1]; Dose 0.40 uM): −0.292 log 2 fold change; Z.LYZ.NS ([1]; Dose 0.40 uM): −2.546; Dose.FC.LYZ.NS ([1]; Dose 2.00 uM): −0.251 log 2 fold change; Z.LYZ.NS ([1]; Dose 2.00 uM): −2.188; Dose.FC.LYZ.NS ([1]; Dose 10.00 uM): −0.286 log 2 fold change; Z.LYZ.NS ([1]; Dose 10.00 uM): −2.494; Dose.FC.LYZ.S ([2]; Dose 0.08 uM): −0.396 log 2 fold change; Dose.FC.LYZ.S ([2]; Dose 0.40 uM): −0.380 log 2 fold change; Dose.FC.LYZ.S ([2]; Dose 2.00 uM): −0.424 log 2 fold change; Dose.FC.LYZ.S ([2]; Dose 10.00 uM): −0.419 log 2 fold change; Dose.FC.CTG ([3]; Dose 0.08 uM, primary screen): −0.752 log 2 fold change; Dose.FC.CTG ([3]; Dose 0.40 uM, primary screen): −1.251 log 2 fold change; Dose.FC.CTG ([3]; Dose 2.00 uM, primary screen): −1.983 log 2 fold change; Dose.FC.CTG ([3]; Dose 10.00 uM, primary screen): −1.414 log 2 fold change"
